Results from patent US20180071303A1, “SYK INHIBITORS” (Gilead Sciences, Inc., priority 2016, published 2018).

What was measured:
[1] = Nijjar J. S. et al., Rheumatology 2013; cited from earlier work
[2] = tested on: previously untreated AML; assay: phase 1b/2 study (NCT02343939) of entospletinib monotherapy followed by combination with daunorubicin and cytarabine; conditions: for complete remission (CR) rate: with induction chemotherapy
Source text: Patients with residual disease two weeks after chemotherapy received a second induction cycle identical to the first.

SMILES	adverse side effects [1]	patients requiring a second induction ([2]; 200 mg BID, 3 patients)	complete remission (CR) rate ([2]; 200 mg BID, 3 patients)	dose limiting toxicity (DLT) ([2]; 200 mg BID, three patients)	dose limiting toxicity (DLT) ([2]; 400 mg BID, 3 additional patients (DL 1 expanded))	patients requiring a second induction ([2]; 400 mg BID, 6 patients)	complete remission (CR) rate ([2]; 400 mg BID, 6 patients)	adverse event possibly related to entospletinib ([2]; 400 mg BID, one of three patients, with documented fungal pneumonia, did not meet DLT criteria)	platelet response during the window period ([2]; another patient with 11q23-rearranged AML, monotherapy window)	toxicities after combination with intensive chemotherapy ([2]; combination with daunorubicin and cytarabine)	tolerability of combination with intensive chemotherapy ([2]; doses up to 400 mg BID)	tolerability of single-agent entospletinib ([2]; monotherapy window period (up to 14 days), AML patients)	clinical activity in AML ([2]; overall conclusion)	most common non hematologic adverse events ([2]; overall, inclusive of intensive chemotherapy periods)	response after entospletinib monotherapy window ([2]; person with 11q23-rearranged AML, 14 day monotherapy, prior to chemotherapy)
COc1cc(Nc2ncc(F)c(Nc3ccc4c(n3)N(COP(=O)(O)O)C(=O)C(C)(C)O4)n2)cc(OC)c1OC [Fostamatinib]	hypertension, neutropenia and transaminitis	–	–	–	–	–	–	–	–	–	–	–	–	–	–
c1cn2cc(-c3ccc4cn[nH]c4c3)nc(Nc3ccc(N4CCOCC4)cc3)c2n1 [entospletinib]	–	two	100%	no DLT was observed	none of whom experienced DLT	none	100%	grade 3 pneumonitis	significant platelet response	common and typical	well tolerated	well tolerated	significant clinical activity	febrile neutropenia, nausea, and diarrhea	achieved morphologic and cytogenetic CR
